# From paper PMC1903359, “Engineering of PA-IIL lectin from Pseudomonas aeruginosa – Unravelling the role of the specificity loop for sugar preference” (BMC Structural Biology, 2007)
# Like-named read-outs stand apart in the source and are kept apart here.
# What was measured:
# [1] = system: PA-IIL wild type; details: cited from earlier work
# [2] = system: RS-IIL; set-up: method as in PMID 16768446; details: cited from earlier work
# [3] = target: PA-IIL S22A (Pseudomonas aeruginosa, UniProt Q9HYN5, S23A); experiment: ITC binding of monosaccharides to PA-IIL mutant S22A; details: for -TΔS: calculated from ΔG and ΔH
# [4] = target: PA-IIL S23A (Pseudomonas aeruginosa, UniProt Q9HYN5, S24A); experiment: ITC binding of monosaccharides to PA-IIL mutant S23A; details: ITC at 25°C
# [5] = target: PA-IIL G24N (Pseudomonas aeruginosa, UniProt Q9HYN5, G25N); experiment: ITC binding of monosaccharides to PA-IIL mutant G24N; details: for ΔH / -TΔS: ITC at 25°C; for -TΔS: calculated from ΔG and ΔH
# [6] = target: PA-IIL lectin from Pseudomonas aeruginosa, mutant G24N (Pseudomonas aeruginosa); experiment: crystal structure; mutants co-crystallised with fucose (hanging drop), soaked 24 h in 10 mM Me-α-D-Man or Me-α-L-Fuc; tetramer in the asymmetric unit
# [7] = target: PA-IIL lectin from Pseudomonas aeruginosa, mutant S22A (Pseudomonas aeruginosa); experiment: as above
# [8] = target: PA-IIL lectin from Pseudomonas aeruginosa, mutant S23A (Pseudomonas aeruginosa); experiment: as above
# [9] = PA-IIL wild type, ITC at 25°C, ref Sabin, C. et al, 2006 [14]
# [10] = ITC at 25°C, comparison data, Figure 7 gives ref 18
molecule,measurement,setting,value
"CO[C@@H]1O[C@@H](C)[C@@H](O)[C@@H](O)[C@@H]1O [Me-α-L-Fuc, methyl α-L-fucopyranoside]",-TΔS,[1]; [9],4.9 (± 1.0) kJ/mol
same,KA,[1]; [9],235 (± 8.0) ×10^4M^-1
same,Kd,[1]; [9],430 nM
same,ΔG,[1]; [9],-36.4 (± 0.1) kJ/mol
same,ΔH,[1]; [9],-41.3 (± 1.0) kJ/mol
same,entropic contribution TΔS,"[1]; native (wild type) PA-IIL, sign as TΔS",-1.17 kcal/mol
same,KA,[2]; footnote b: value < 10^4 M^-1,< 10000 M⁻¹
same,Kd,[2]; footnote b,> 100000 nM
"CO[C@@H]1O[C@@H](CO)[C@@H](O)[C@@H](O)[C@@H]1O [Me-α-L-Gal, methyl α-L-galactopyranoside]",-TΔS,[1]; [9],-2.3 (± 0.7) kJ/mol
same,KA,[1]; [9],85.0 (± 5.0) ×10^4M^-1
same,Kd,[1]; [9],1170 nM
same,ΔH,[1]; [9],-31.5 (± 0.6) kJ/mol
same,ΔH,"[3]; S22A, ITC at 25°C",-19.2 (± 0.2) kJ/mol
same,-TΔS,"[3]; S22A, ITC at 25°C",-8.3 (± 0.3) kJ/mol
same,ΔH,[4],-26.8 (± 1.7) kJ/mol
same,ΔH,[5],-18.7 (± 0.3) kJ/mol
same,-TΔS,[5],-15.0 (± 0.9) kJ/mol
"CO[C@H]1O[C@H](CO)[C@@H](O)[C@H](O)[C@@H]1O [Me-β-D-Man, methyl α-D-mannopyranoside]",-TΔS,[2]; [10],-13.0 (± 0.2) kJ/mol
same,KA,[2]; [10],438 (± 2.0) ×10^4M^-1
same,Kd,[2]; [10],230 nM
same,ΔG,[2]; [10],-37.9 (± 0.1) kJ/mol
same,times higher affinity of the mutant compared to the wild type protein,[3]; S22A versus wild type PA-IIL,25 times
same,"total difference in free energy, mutant versus wild type",[3]; S22A versus wild type PA-IIL,-1.91 kcal/mol
same,-TΔS,"[3]; S22A, ITC at 25°C",-7.4 (± 0.7) kJ/mol
same,favourable entropic contribution TΔS,"[3]; S22A, sign as TΔS",1.77 kcal/mol
same,ΔH,[4],-16.7 (± 2.3) kJ/mol
same,KA,"[4]; 0.1 M Tris-HCl, 30 μM CaCl2, pH 7.5",1.91 (± 0.33) ×10^4M^-1
same,-TΔS,[4]; calculated from ΔG and ΔH,-7.7 (± 2.7) kJ/mol
same,ΔH,[5],-27.1 (± 0.8) kJ/mol
same,-TΔS,[5],2.1 (± 0.9) kJ/mol
same,entropic contribution as share of the total Gibbs energy change,[5]; unfavourable entropic contribution,8%
"PA-IIL lectin from Pseudomonas aeruginosa, mutant G24N (natural protein)",stoichiometry N,[6],4
"PA-IIL lectin from Pseudomonas aeruginosa, mutant S22A (natural protein)",stoichiometry N,[7],4
"PA-IIL lectin from Pseudomonas aeruginosa, mutant S23A (natural protein)",stoichiometry N,[8],4
